10 compounds from PubChem BioAssay (NCI) can be followed below.

Assay in all cases: DTP human tumour cell line panel, 48 h
The test system of experiment [1] is K-562 leukemia.
Experiment [2] deals with OVCAR-5 ovarian.
Experiment [3] concerns UO-31 renal.
Experiment [4] deals with MALME-3M melanoma.
Experiment [5] concerns U251 CNS.
The subject of experiment [6] is M14 melanoma.
Experiment [7] deals with PC-3 prostate.
The subject of experiment [8] is HCT-15 colon.
Experiment [9] has as its system ACHN renal.
The test system of experiment [10] is UACC-62 melanoma.

Several values for one entry are separate records, joined by “and”; a condition that tells them apart may be missing. Equal values may be shown once.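 Cells were grown in 96-well plates and exposed to each compound for 48 hours at five concentrations; endpoints were interpolated linearly between bracketing concentrations, or set to the highest concentration if not reached. GI50 marks 50% less growth. The concentration for full growth arrest is given as TGI.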

For orientation: TGI means the concentration at which net growth stops. Regarding `CCN1CCCCCCCCCC(=N/O)/C(=N\O)C1`, the concentration for total growth inhibition (TGI) in experiment [1], in experiment [2], in experiment [3], in [4], in [5] and in [6] was greater than 100 µM in each case. The TGI in [7], in [8] and in experiment [9] was greater than 100 µM throughout.
The term GI50 denotes the concentration that inhibits growth by half. `Cn1ccc(S(=O)(=O)N2CCC[C@H](Nc3nccc(-c4c(-c5cccc(O)c5)nc5occn45)n3)C2)n1`: the GI50 in experiment [10] is 0.0643 µM; in experiment [1], 13.9 µM; in experiment [2], 24.9 µM; in experiment [3], 12.9 µM; in [5], 22.3 µM; in [6] it was 0.112 µM. For the same compound, the GI50 is 19.4 µM in experiment [7], 22.3 µM in experiment [8] and 7.19 µM in experiment [9]. In addition, the concentration for total growth inhibition (TGI) in experiment [10] was 3.4 µM; in experiment [1], greater than 100 µM; in experiment [2], greater than 100 µM; in experiment [3], 57.1 µM; in [5], greater than 100 µM; in [6], 13.9 µM. The concentration for total growth inhibition (TGI) in [7] was greater than 100 µM; in [8], greater than 93.8 µM; in experiment [9], greater than 100 µM.
Consider `O=C1NC(c2cccc3ccccc23)Nc2ccc(Cl)cc21` (centres undefined), for which the GI50 in [2] was 0.0291 µM. The TGI in experiment [2] was 0.085 µM; in experiment [3], 0.00836 µM; in experiment [4] it was 37.7 µM; in experiment [5], 0.022 µM and 0.0266 µM; in experiment [7], 0.0148 µM and 0.0143 µM; in experiment [8], 0.269 µM. In addition, in [9], the TGI is 10.7 µM.
For `NC(=O)NC(=O)Nc1ccc(Br)cc1`, the TGI in experiment [1] is greater than 100 µM; in [2], greater than 100 µM; in experiment [3], greater than 100 µM; in [4] it was greater than 27.9 µM; in [5] it was greater than 52.3 µM; in [6] it was greater than 45.1 µM. Also, the total growth inhibition concentration (TGI) was greater than 100 µM in experiment [7], greater than 65.4 µM in experiment [8] and greater than 30.3 µM in experiment [9].
On to `COc1ccc(-c2cc(-c3ccc(Cl)cc3)nc(SCCCC(=O)NO)n2)cc1OC`, for which the GI50 in experiment [10] was 1.01 µM; in experiment [2], 0.931 µM; in experiment [3], 0.277 µM; in experiment [4] it was 1.6 µM; in experiment [5] it was 0.799 µM; in experiment [7], 0.944 µM. In addition, the GI50 in [8] is 0.337 µM; in experiment [9] it was 0.364 µM. Moreover, the concentration for total growth inhibition (TGI) in [10] was 2.86 µM; in experiment [2], 4.36 µM; in [3], 1.09 µM; in experiment [4] it was 5.64 µM; in [5], 7.34 µM; in [7] it was 3.03 µM. For the same compound, the values for the TGI in [8] and in experiment [9] were 1.56 µM and 2.04 µM, respectively.
For `CCN(CC)Cc1cc(Nc2ccnc3ccc(OC)cc23)ccc1O`, the GI50 in experiment [10] is 5.78 µM; in experiment [2] it was 3.95 µM; in experiment [3], 1.84 µM; in experiment [4], 3.85 µM; in [5], 4.46 µM; in [6], 2.88 µM. Also, the GI50 in [7] was 4.49 µM; in experiment [8] it was 3.56 µM; in experiment [9] it was 2.82 µM. Also, the TGI in experiment [10] was 20.9 µM; in [2] it was 28 µM; in experiment [3], 5.96 µM; in experiment [4], 15.7 µM; in experiment [5], 17.9 µM; in experiment [6] it was 10.1 µM. Moreover, the TGI in [7] is 31.6 µM; in [8] it was 34 µM; in experiment [9] it was 9.5 µM.
As for `CCCCCCCCCCCCCCCC(=O)OCC1OC(OCCCC)[C@H](O[C@@H]2OC(C)C(OC(=O)CCC)C(O)C2O)C(O)C1O` (some centres undefined), the GI50 in experiment [10] was 10.2 µM; in [1] it was 16.8 µM; in [2], 14.2 µM; in experiment [3] it was 28.3 µM; in [4] it was 16.7 µM; in [5], 18.8 µM. Besides, the values for the GI50 in experiment [7], in [8] and in [9] were 15.4 µM, 22.5 µM and 18.1 µM, respectively. Further, the TGI in experiment [10] was 23.6 µM; in experiment [1], 31.6 µM; in experiment [2], 27.6 µM; in experiment [3], greater than 100 µM; in experiment [4] it was 42.4 µM; in experiment [5] it was 38.8 µM. Further, the TGI turned out to be 30.5 µM in [7], 55.7 µM in experiment [8] and 35.2 µM in experiment [9].
Take `CCN1C[C@@H](C)n2c(c(O)c3c(=O)n(Cc4ccc(F)c(Cl)c4)nc(C(=O)NC)c32)C1=O`: the GI50 in [1] was 3.39 µM; in experiment [2] it was 3.86 µM; in experiment [3] it was 2.43 µM; in [4] it was 2.75 µM; in experiment [6] it was 3.64 µM; in experiment [7], 3.27 µM. In addition, the GI50 is 2.57 µM in experiment [8] and 2.85 µM in experiment [9]. Further, the TGI in [1] is greater than 100 µM; in experiment [2], greater than 100 µM; in experiment [3], greater than 100 µM; in experiment [4], 8.07 µM; in experiment [6], 39.5 µM; in [7] it was 32 µM. Moreover, the TGI is 8.28 µM in experiment [8] and 8.87 µM in [9].
Consider `Cc1cc(C)c([O-])c(-[n+]2c(-c3ccccc3)cc(-c3ccccc3)cc2-c2ccccc2)c1`, for which the total growth inhibition concentration (TGI) in [10] was 12.5 µM; in experiment [1] it was greater than 100 µM; in experiment [2] it was 18.4 µM; in [3], 33.7 µM; in experiment [4] it was 16.7 µM; in experiment [5], 14.9 µM. Also, the values for the concentration for total growth inhibition (TGI) in experiment [6], in experiment [8] and in experiment [9] were 18.3 µM, 25.4 µM and 16.6 µM, respectively.
For `C=CCc1cc(O)ccc1O`, the GI50 in [10] was 25.2 µM; in experiment [1], 17.7 µM; in experiment [2], 26.7 µM; in experiment [3], 11 µM; in experiment [4], 23.6 µM; in experiment [5], 36.4 µM. Moreover, the values for the GI50 in experiment [7], in [8] and in experiment [9] were 12.5 µM, 36 µM and 15.1 µM, respectively. Besides, the TGI in experiment [10] is greater than 100 µM; in experiment [1], greater than 100 µM; in experiment [2] it was greater than 100 µM; in [3], 24.4 µM; in experiment [4] it was greater than 100 µM; in experiment [5], greater than 100 µM. In addition, the total growth inhibition concentration (TGI) in experiment [7] is greater than 100 µM; in [8] it was greater than 100 µM; in experiment [9], 28.3 µM.
